Test results reported in US20120190615A1, “METHODS AND COMPOSITIONS FOR INDUCING WEIGHT LOSS” (Sanford-Burnham Medical Research Institute, priority 2011, published 2012).
Several values for one entry are separate records, joined by “and”; a condition that tells them apart may be missing. Identical values can stand only once.

How the values were obtained:
[1] = tested on: C3H10T1/2 mesenchymal stem cells; experiment: Brown fat differentiation of C3H10T1/2 mesenchymal stem cells (Oil Red O, immunoblot, qRT-PCR, MitoTracker); assay type: cell-based, mouse
Method: OXR1 expression was confirmed in the undifferentiated mesenchymal stem cell line C3H10T1/2 cells (ATCC). Cells were grown to 50-70% confluence in high glucose DMEM supplemented with 10% FBS and differentiated in standard induction media supplemented with 100 nM human orexin A (cat. No. 24470, Anaspec), vehicle, or recombinant human BMP-7 (cat. No. 4579, BioVision, a potent inducer of […] differentiation) for three days, at which time cells reached 100% confluence. Cells were then incubated in adipogenic media for 7 days in the absence of […]. Cells were then stained with Oil Red O according to the following protocol. Cells were washed twice with phosphate-buffered saline (PBS), fixed with 10% buffered formalin for 1 hour at room temperature, washed twice in PBS, stained for 30 minutes at room temperature with a filtered Oil red O (Sigma) solution (0.5% Oil red O in isopropyl alcohol), washed twice with PBS, and stored in PBS for visualization under the inverted microscope (Olympus).
Following OX treatment, greater than 90% of cells differentiated from an elongated fibroblastic morphology to a spherical one typical of differentiated fat cells. OXR1 expression in the differentiated mesenchymal cells was done using RT-PCR analysis of the OXR1 mRNA. FIG. 4 provides the Ct value OXR1 and the Ct value for 18S RNA is shown for comparison.
To determine triglyceride content, BAT was homogenized in 1 ml of saline solution and Triglycerides Reagent Kit (Pointe Scientific) was used to determine triglyceride concentration in the tissue.
Protein extracts from the treated mesenchymal cells was used to assess the expression of early adipogenic transcription factors that are known to function in adipogenesis. Specifically, immunoblotting was used to assess the expression of C/ebp-alpha, Ppar-γ1, Prdm16, Pgc1-alpha, and Ucp1 in the differentiated mesenchymal stem cells.
The expression of several adipogenic inhibitors was assessed in the differentiated mesenchymal stem cells and control cells by qRT-PCR. Undifferentiated C3H10T1/2 cells abundantly express Necdin, preadpocyte factor-1 (Pref-1), and Wnt10a, all of which inhibit early adipogenic events. Preadipocytes must counteract an adipogenic block imposed by these factors in order to differentiate. […] FIG. 6 illustrates results from a PCR analysis of adipogenic inhibitors in C3H10T1/2 cells treated with BMP-7 or OX for 3 days followed by adipogenic induction for 7 days. Data are expressed as arbitrary units after normalization to 18S RNA.
The cultured mesenchymal stem cells were assessed for the expression of a variety of regulators of adipogenesis and mitochondrial function, qRT-PCR was performed as follows: RNA was isolated using Trizol lysis reagent (Qiagen) and purified by RNeasy Mini columns (Qiagen), cDNA was produced using an RT-PCR kit (Applied Biosystems) and primers synthesized by Integrated DNA Technologies, and PCR reactions were run in duplicate for each sample and quantified in the ABI Prism 7000 Sequence Detection System (Applied Biosystems) The expression of each RNA was normalized to the 18S RNA level.
Important adipogenic regulators such as C/ebp. […] Mitochondiral transcription factor (Tfam), cytochrome oxidase (Cox7a, Cox8b) and deiodinase-2 expression were elevated before exposure to adipogenic media, as shown in FIG. 10. […] Expression of stearoyl-CoA desaturase (Scd), an enzyme catalyzing the rate-limiting step in lipid biosynthesis, was also elevated over 100-fold during differentiation. mRNAs encoding other markers fatty acid oxidation such as Lp1, Sirt3, Adam15-1 and Adam15-2, and Adipor1 were enriched in differentiated mesenchymal stem cells following OX treatment (FIG. 11).
Based on the foregoing studies, three features distinguish BAT from WAT: the appearance of multilocular oil droplets, mitochondrial enrichment, and Ucp-1 expression. […]

[2] = tested on: Mouse embryonic fibroblasts (MEFs); experiment: Differentiation of mouse embryonic fibroblasts to a BAT lineage; assay type: cell-based; conditions: 3-day treatment, 7-10 days without induction cocktail, Oil Red O
Text: Mouse embryonic fibroblasts (MEFs) resemble mesenchymal cells in their ability to differentiate into various mesenchymal lineages. To determine whether OX triggers commitment of embryonic fibroblasts to a BAT lineage, MEFs isolated at […] were exposed to a differentiation protocol involving a 3-day treatment with Orexin A and BMP-7, and differentiation in the absence of the standard induction cocktail of IBMX, thiazolidone, and indomethacin for a further 7-10 days.

BMP signaling = BMP signaling in C3H10T1/2 cells (qPCR of Bmpr1a and BMP-7, Smad 1/5/8 phosphorylation); assay type: cell-based, mouse; conditions: 100 nM OX 3 days
Text: Bone morphogenic proteins, which are members of the TGF-β superfamily, control critical steps in development and differentiation and are important regulators of both WAT and BAT adipogenesis. BMP-2 and -4 induce white fat adipogenesis, while BMP-7 enhances brown fat traits. BMP-7 functions through interacting with BMP receptors, which mediate Smad 1/5/8 phosphorylation, to stimulate brown fat adipogenesis.

obese wild type B6 mice = experiment: Reversal of diet-induced obesity, OX twice weekly for 4 wks after 17 weeks HFD (Example 13); assay type: in vivo
Method: To confirm that systemic OX therapy induces weight loss in obese mice, wild type B6 mice were fed a HFD for 17 weeks and treated either with OX (10 mg/kg) or PBS vehicle twice weekly for 4 wks (n=6 mice/group). […] The OX-injected group began losing body weight from week 1. At the end of the 4-week treatment regimen, the OX-injected population appeared considerably leaner than the vehicle-injected controls, and the former had lost about 10 g body weight, as shown in FIG. 29A. […] Enhancement of energy expenditure was not due to any increase in physical activity (FIG. 29C).
To evaluate changes associated with weight loss, OX-treated and untreated mice were compared at autopsy. Untreated mice fed a high fat diet had developed fatty livers, which were visibly paler in color than those from OX-treated mice (FIG. 29E).

[3] = end of 4-week treatment, OX 10 mg/kg twice weekly

## orexin-A (EPLPDCCRQKTCSCRLYELLHGAGNHAAGILTL) [OX, human orexin A, cat; No. 24470, Anaspec]
[1]; 100 nM OX 3 days, then adipogenic media 7 days
  cells differentiated from fibroblastic to spherical morphology typical of differentiated fat cells: greater than 90%
[1]; MitoTracker staining
  mitochondrial biogenesis: induced extensive mitochondrial biogenesis
[1]; during differentiation
  expression of stearoyl-CoA desaturase (Scd), elevation: over 100 fold
[1]; following OX treatment
  rate and extent of cytoplasmic triglyceride accumulation: comparable to that seen following treatment with BMP-7
[1]; immunoblotting
  expression of adipogenic transcription factors C/ebp-alpha, Ppar-γ1, Prdm16, Pgc1-alpha, Ucp1: comparable to that induced by BMP-7
[1]; qRT-PCR
  Ucp-1 and deiodinase type 2 mRNA expression: induced
[1]; qRT-PCR, 3 days treatment then 7 days adipogenic induction
  mRNAs encoding inhibitory factors Necdin, Preadipocyte factor-1, Wnt10a: suppression
[1]; qRT-PCR, normalized to 18S RNA
  Pref-1 expression: decreased by two orders of magnitude
[1]; qRT-PCR, prior to suppression of adipogenic inhibitors
  adipogenic regulators C/ebp, Prdm16, Ppar-gamma, Foxc2, Zfp423: significantly increased
[2]
  phenotype of treated MEFs: adopted a BAT phenotype
BMP signaling
  BMP-receptor 1A and BMP-7 mRNA expression: induced
Obese wild type B6 mice; 4 weeks treatment
  amount of visceral fat: considerably decreased
Obese wild type B6 mice; between groups
  food intake: did not differ significantly
  lean mass or fluid content: not significantly different
Obese wild type B6 mice; calorimetric studies
  energy expended, more than the control group: 17%
  oxygen consumed, more than the control group: 13%
Obese wild type B6 mice; end of 4-week treatment
  body weight lost: about 10 g
Obese wild type B6 mice; [3]
  % body fat: 27% and 27 ± 1.4%
  Fat mass: 7.9 ± 0.6
  Lean mass: 20.4 ± 1.3
  Lean mass fat mass ratio: 2.58 ± 0.2
Obese wild type B6 mice; end of 4-week treatment, OX 10 mg/kg twice weekly, in g (unit assumed)
  Body weight: 29.2 ± 0.8
Obese wild type B6 mice; end of the study
  reduction of whole body fat mass: 55%
Obese wild type B6 mice; high fat diet, at autopsy
  triglycerides within the liver: 91 ± 7 µmol/g
Obese wild type B6 mice; mitoTracker-stained iBAT sections, relative to controls
  iBAT mitochondrial content/activity: elevated mitochondrial content/activity
